Experimental data taken from patent publication US11680068B2, “Compounds useful as RET inhibitors” (Cancer Research Technology Limited, priority 2017, dated 2023).

The compounds below were run against RET (Homo sapiens (Human), UniProt P07949) (assay: RET enzyme assay (CisBio HTRF kinEASE)). Settings: tested compounds listed as lacking activity.
Format: biochemical

RET, sequence (P07949 658-1114): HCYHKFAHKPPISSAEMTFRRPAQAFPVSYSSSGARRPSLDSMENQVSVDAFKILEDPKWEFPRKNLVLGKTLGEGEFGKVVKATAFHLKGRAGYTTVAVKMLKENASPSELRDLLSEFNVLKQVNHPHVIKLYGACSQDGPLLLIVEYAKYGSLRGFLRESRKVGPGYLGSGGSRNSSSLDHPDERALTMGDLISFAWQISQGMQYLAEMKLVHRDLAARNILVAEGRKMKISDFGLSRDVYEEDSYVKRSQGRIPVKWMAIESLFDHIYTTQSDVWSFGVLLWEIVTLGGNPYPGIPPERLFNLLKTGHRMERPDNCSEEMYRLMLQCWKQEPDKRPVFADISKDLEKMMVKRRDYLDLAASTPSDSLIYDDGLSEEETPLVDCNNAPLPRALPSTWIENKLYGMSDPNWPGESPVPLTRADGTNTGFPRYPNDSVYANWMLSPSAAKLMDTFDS

| desired activity in the assays described in Example 51 | Compound |
| --- | --- |
| did not exhibit the desired activity | CNC(=O)c1cc2ccc(-c3nn(CC(=O)N(C)C)c4ncnc(N)c34)cc2[nH]1 [6-[4-amino-1-[2-(dimethylamino)-2-oxo-ethyl]pyrazolo[3,4-d]pyrimidin-3-yl]-N-methyl-1H-indole-2-carboxamide] |
| did not exhibit the desired activity | CNC(=O)c1cc2ccc(-c3nn(CCC(=O)N(C)C)c4ncnc(N)c34)cc2[nH]1 [6-[4-amino-1-[3-(dimethylamino)-3-oxo-propyl]pyrazolo[3,4-d]pyrimidin-3-yl]-N-methyl-1H-indole-2-carboxamide] |
| did not exhibit the desired activity | CCNC(=O)c1cc2ccc(-c3nn([C@H]4CC[C@@H](O)C4)c4ncnc(NC)c34)cc2[nH]1 [N-ethyl-6-[1-[(1S,3R)-3-hydroxycyclopentyl]-4-(methylamino)pyrazolo[3,4-d]pyrimidin-3-yl]-1H-indole-2-carboxamide] |

Continued, compound first:

| Compound | desired activity in the assays described in Example 51 |
| --- | --- |
| CC(C)(C)n1nc(-c2ccc3cc(C(=O)O)[nH]c3c2)c2c(N)ncnc21 [6-(4-amino-1-tert-butyl-pyrazolo[3,4-d]pyrimidin-3-yl)-1H-indole-2-carboxylic acid] | did not exhibit the desired activity |
| CC(C)(C)n1nc(-c2ccc3cc(C(=O)Nc4nnc(C(F)(F)F)s4)[nH]c3c2)c2c(N)ncnc21 [6-(4-amino-1-tert-butyl-pyrazolo[3,4-d]pyrimidin-3-yl)-N-[5-(trifluoromethyl)-1,3,4-thiadiazol-2-yl]-1H-indole-2-carboxamide] | did not exhibit the desired activity |
| CNC(=O)c1cc2ccc(-c3n[nH]c4ncnc(N)c34)cc2[nH]1 [6-(4-amino-1H-pyrazolo[3,4-d]pyrimidin-3-yl)-N-methyl-1H-indole-2-carboxamide] | did not exhibit the desired activity |
| CNC(=O)c1cc2ccc(-c3nn(CCO)c4ncnc(N)c34)cc2[nH]1 [6-[4-amino-1-(2-hydroxyethyl)pyrazolo[3,4-d]pyrimidin-3-yl]-N-methyl-1H-indole-2-carboxamide] | did not exhibit the desired activity |
